# Reference: patent US7488791B2, “Mixture of peptides derived from E6 and/or E7 papillomavirus proteins and uses thereof” (priority 2001, dated 2009)
# Key:
# [1] = test system: E7-specific T lymphocyte lines; conditions: Altmann et al.; cited from earlier work
# [2] = test system: CD4+ T lymphocytes; assay: Proliferation assay ([3H]-thymidine incorporation) of PBMCs / cells from patients having bowenoid papulosis; format: cell-based, human; conditions: patient, DR 1501, DRB5
# Procedure: A suspension of cells (PBMCs, CD8+ cell-depleted PBMCs, T lymphocytes pre-enriched by a step of culturing in vitro with the peptides selected according to the invention, or cloned T lymphocytes) is cultured for 3 to 5 days in the presence of the selected peptides and, as needed, of suitable presenting cells, such as dendritic cells, autologous or heterologous PBMCs, lymphoblastoid cells such as those obtained after infection with the EBV virus or genetically modified cells. The cell proliferation is measured by incorporation of tritiated thymidine into the DNA of the cells. The peptides selected in accordance with the invention make it possible to reveal, in the initial suspension, the presence of cells specific for these peptides. • as regards the ELISPOT assay:
# To verify the stimulation of CD4+ T cell proliferation using immunogenic composition according to the invention, a proliferation assay is performed in vitro.
# The cells (PBMCs) extracted from peripheral blood were cultured in 96-well microplates in a proportion of 2×10^5 cells per well, in a final volume of 200 μl of complete medium. The cells were or were not stimulated with 10 μg/ml of a mixture of peptides according to the invention. […] The cells were recovered and the [^3H]-thymidine incorporation was measured in a cellular DNA. […]
# [3] = test system: DR7-restricted clone; conditions: Strang et al.; cited from earlier work
compound,measurement,setting,value
"E7: 17-34: HPV16 E7 peptide, positions 17-34, Altmann et al. (PETTDLYCYEQLNDSSEE; UniProt P03129 17-34, looked up, fragment)",Recognition by T lymphocyte line or clone from a patient,[1],Recognized by line from a DR4
CC[C@H](C)[C@H](N)C(=O)N[C@@H](CCCNC(=N)N)C(=O)NCC(=O)N[C@@H](CCCNC(=N)N)C(=O)N[C@@H](Cc1c[nH]c2ccccc12)C(=O)N[C@H](C(=O)NCC(=O)N[C@@H](CCCNC(=N)N)C(=O)N[C@@H](CS)C(=O)N[C@@H](CCSC)C(=O)N[C@@H](CO)C(=O)N[C@@H](CS)C(=O)N[C@@H](CS)C(=O)N[C@@H](CCCNC(=N)N)C(=O)N[C@@H](CO)C(=O)N[C@@H](CO)C(=O)N[C@@H](CCCNC(=N)N)C(=O)N[C@H](C(=O)N[C@@H](CCCNC(=N)N)C(=O)N[C@@H](CCCNC(=N)N)C(=O)N[C@@H](CCC(=O)O)C(=O)N[C@H](C(=O)N[C@@H](CCC(N)=O)C(=O)N[C@@H](CC(C)C)C(=O)O)[C@@H](C)O)[C@@H](C)O)[C@@H](C)O [E6/10],"Prolif: peptide recognized, in terms of proliferation, by the CD4+ T lymphocytes",[2],weak
"E6: 42-57: HPV16 E6 peptide, positions 42-57, Strang et al. (QQLLRREVYDFAFRDL; UniProt P03126 42-57, looked up, fragment)",Recognition by T cell clone,[3],Recognized by DR7-restricted
